Measured values from patent publication US10570454B2, “Methods of identifying individuals at increased risk of lung cancer” (Trustees of Boston University, priority 2007, dated 2020).
“Also recorded” adds a separate entry of the source.

What was measured:
PI3K [1] = experiment: PI3K kinase assay (PIP3 production) in insulin-stimulated BEAS-2B cells; format: cell-based; conditions: BEAS-2B (bronchial airway cell line), insulin-activated, varying doses
Description: (§1) Insulin was used to activate the PI3K pathway in three different cell lines: (FIG. 5A) BEAS-2B (bronchial airway cell line), (FIG. 5B) BT549 (breast cancer cell line), and (FIG. 5C) HEK293 (human embryonic kidney cell line). The cell lines were then treated with varying doses of myo-inositol and LY-294002. PIP3 levels were measured to quantify the activation levels of the PI3K pathway (y-axis). […] Replication of these experiments produced similar results.
(§2) 80% confluent BEAS-2B, BT549, or HEK293 cells were starved in BEBM, RPMI, or DMEM medium, respectively (Clonetics, GibcoBRL). This media contained either 0.1% added supplements for the BEAS-2B cells or 0.1% fetal bovine serum for BT549 and HEK293 cells for 24 hrs. […] The production of PIP3 was evaluated by autoradiography and quantified by densitometry analysis and scintillation analysis. […]
(§3) A reduction in PI3K activity in patients that responded to myo-inositol with a regression of dysplasia in their airway reinforces the association between elevated PI3K activity levels and the presence of pre-neoplastic airway lesions. […] PI3K activity, as measured by PIP3 levels, was then quantified using a standard kinase assay protocol. For this experiment, three different cell lines were analyzed in replicate: BEAS-2B (airway), BT549 (breast cancer) and HEK293 (embryonic kidney). […]

PI3K [2] = experiment: PI3K kinase assay (PIP3 production) in insulin-stimulated BT549 cells; format: cell-based; conditions: BT549 (breast cancer cell line), insulin-activated, varying doses
Description: as §1, §2, §3

PI3K [3] = experiment: PI3K kinase assay (PIP3 production) in insulin-stimulated HEK293 cells; format: cell-based; conditions: HEK293 (human embryonic kidney cell line), insulin-activated, varying doses
Description: as §1, §2, §3

PI3K pathway = experiment: GSEA of PI3K gene sets in cytologically normal airway epithelium before versus after myo-inositol treatment; format: in vivo, human
Description: Cytologically normal airway epithelial samples from patients with dysplastic airway lesions at the University of British Columbia were collected before and after 2-3 months of treatment with myo-inositol (n=20, 10 patients with two samples each), as well as six additional samples collected pre-treatment with myo-inositol as part of a dose response study. In that study, bronchial brushing was performed in three separate 6-8th generation bronchial airways using a 1.7 mm diameter bronchial cytology brush (Hobbs Medical, Stafford Springs, Conn.). The brush was retrieved and immediately immersed in RNALater and kept frozen at −80° C. until assayed. Epithelial cell content of representative bronchial brushing samples has been quantitated by cytocentrifugation (ThermoShandon Cytospin, Pittsburgh, Pa.) of the cell pellet and staining with a cytokeratin antibody (Signet, Dedham Mass.). The cells in the bronchial brush contained >90% bronchial epithelial cells. […]
Gene Set Enrichment Analysis was calculated using GSEA v2. […] Genes were ranked using the following linear model (as calculated in R): Y=β0+β1+β2+b+ε Where Y is the expression of a gene, β0 is the intercept, β1 measures lung cancer risk (whether the sample has dysplasia or not), β2 is the cumulative cigarette smoke exposure for each person (pack-years), b is a random effect correcting for batch differences, and ε is the error term. […]

[4] = test system: dysplastic airway lesions; conditions: cited from earlier work

Which results are given for `O[C@H]1[C@H](O)[C@@H](O)[C@H](O)[C@@H](O)[C@H]1O` [myo-inositol]?
PI3K activity, as measured by PIP3 levels (PI3K [1]): inhibited PI3K activity levels in a dose-dependent manner; also recorded: drop in PIP3 levels; PI3K activity, as measured by PIP3 levels (PI3K [2]): inhibited PI3K activity levels in a dose-dependent manner; also recorded: drop in PIP3 levels; PI3K activity, as measured by PIP3 levels (PI3K [3]): inhibited PI3K activity levels in a dose-dependent manner; also recorded: drop in PIP3 levels; change in expression of PI3K gene sets (GSEA), before versus after treatment (PI3K pathway; subjects that did not respond to treatment (n=3, 6 samples)): no change in the levels of the PI3K gene sets; change in expression of PI3K gene sets (GSEA), before versus after treatment (PI3K pathway; subjects who did respond to treatment (n=6, 12 samples), p=0.04, FDR Q=0.177): increased expression of genes in the PI3K Down gene set; rate of dysplastic regression ([4]; oral, 2-3 months, smokers with moderate-severe dysplasia, versus placebo-treated control patients): significantly increase the rate of dysplastic regression; side effects ([4]; taken orally): very minor side effects
